Source: patent USRE29842E, “Untriakontapeptide with opiate activity” (Hoffmann-La Roche Inc., priority 1977, dated 1978)
No end group written: not given here.

Columns and labels:
[1] = tested on: opiate receptor, guinea pig brain membranes; assay: Opiate agonist activity by receptor binding assay (method of Simon et al.); settings: for Percentage of inhibition of stereospecific binding: mean ± standard error from 4 determinations
Experimental: The opiate agonist activity of natural beta-endophine was determined by the method of Simon et al., Proc. Nat. Acad. Sci. 70, 1947 (1973) using guinea pig brain membranes.

[2] = Hughes et al. Nature 258, 557 (1975); cited from earlier work
rabbit fat cells = assay: Lipolytic activity in rabbit fat cells (procedure of Li et al.); format: cell-based; settings: triplicate, mean ± standard error
Excerpt: The lypolytic activity of natural beta-endorphin was compared to the activity of ovine beta-lipotropin hormone in rabbit fat cells using the procedure of Li et al., Arch. Biochem. Biophys. 169, 669 (1975).

Question: With `Oc1ccc2c3c1O[C@H]1[C@@H](O)C=C[C@H]4[C@@H](C2)NCC[C@@]341` [Normophine, reference compound] as the compound, how does the “Percentage of inhibition of stereospecific binding” value ([1]; dose 0.7 (10-^7 M)) read?
Answer: The value was 28 ± 0.8.

Question: And the “Percentage of inhibition of stereospecific binding” value ([1]; dose 7.0 (10-^7 M))?
Answer: The value was 70 ± 0.9.

Question: For “H-Tyr-Gly-Gly-Phe-Met-OH (H-YGGFM-OH) [pentapeptide isolated from pig brains by Hughes et al]”, which “Opiate agonist activity (in words)” value [2] is on record?
Answer: Its value is “exhibits opiate agonist activity”.

Question: Which results are given for “YGGFMTSEKSQTPLVTLFKNAIIKNAHKKGQ [beta-endorphin]”?
Answer: Percentage of inhibition of stereospecific binding ([1]; dose 1.0 (10-^7 M)): 60 ± 0.7; Percentage of inhibition of stereospecific binding ([1]; dose 10.0 (10-^7 M)): 83 ± 0.2; Potency, times that for normophine on a molar basis ([1]; molar basis): 3.42 times; Lipolytic activity: glycerol production (rabbit fat cells; dose 1.1 (unit not given)): 0.66 ± 0.28 Micromole of glycerol producti; Lipolytic activity: glycerol production (rabbit fat cells; dose 10.0 (unit not given)): 1.42 ± 0.37 Micromole of glycerol producti
